These are literature values, as cited in patent publication US20050150424A1, “Ink composition and inkjet recording method” (FUJI PHOTO FILM CO., LTD., priority 2003, published 2005).

Read-outs that look alike come from different tables or passages of the source.

The conditions of the series: in water at 25° C.

In general, pKa refers to the pH at which an ionisable group is half protonated. Regarding `CCCCC(CC)C(=O)O` (centres unmarked) [2-Ethylhexanoic acid], the pKa (Table 4) was 2-Ethylhexanoic acid (pKa: 4.1). Consider `C=C(C)C(=O)OCCOC(=O)c1ccccc1C(=O)O` [2-methacryloyloxyethyl phthalate], for which the pKa was 4.0. For `C=CC(=O)O` [acrylic acid], the pKa was 3.6. For `C=C(C)C(=O)OCCOP(=O)(O)O` [ethylene glycol methacrylate phosphate], the pKa was 2.5. In the case of `C=C(C)C(=O)O` [methacrylic acid], the pKa is 3.6.
